Source: patent US10294202B2, “Pyrrolidinones as herbicides” (FMC Corporation, priority 2013, dated 2019)

How the values were obtained:
[1] = tested on: barnyardgrass; experiment: Test A pre-/postemergence herbicide test; assay type: in vivo, Echinochloa crus-galli
Outline: (§1)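 Visual injury ratings, 0 = no effect, 100 = complete control, taken ~10 days after treatment against untreated greenhouse controls. Preemergence: directed soil spray onto seeded loam/sand pots. Postemergence: spray onto plants at one- to two-leaf stage, 2–10 cm tall.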

[2] = tested on: lambsquarters; experiment: Test C pre-/postemergence herbicide test; assay type: in vivo, Chenopodium album
Outline: (§2)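 Pre- and postemergence greenhouse screen. Preemergence treatment went onto freshly planted seeds in loam–sand soil; postemergence treatment went onto plants 2 to 18 cm tall at the 1- to 4-leaf stage in sphagnum peat/vermiculite medium. Scoring at 13 to 15 days used a 0–100 control scale.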

[3] = tested on: kochia; experiment: Test A pre-/postemergence herbicide test; assay type: in vivo, Kochia scoparia
Outline: as §1

[4] = tested on: corn; experiment: Test A pre-/postemergence herbicide test; assay type: in vivo, Zea mays; conditions: Postemergence
Outline: as §1

[5] = tested on: barnyardgrass; experiment: Test B flooded paddy test; assay type: in vivo, Echinochloa crus-galli; conditions: Flood, scale of 0 to 100 where 0 is no effect and 100 is complete control
Outline: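 In-water application to pots flooded 3 cm deep, plants at 2-leaf stage. Held in greenhouse 13–15 days at constant flood depth. Scored 0–100 by eye against controls.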

[6] = tested on: blackgrass; experiment: Test A postemergence herbicide test; assay type: in vivo, Alopecurus myosuroides
Outline: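 Blackgrass and galium grown in pots of loam soil–sand blend, treated postemergence at 2–10 cm height, one- to two-leaf stage. Plants kept in greenhouse ~10 days, then visually rated for injury against untreated controls on a 0–100 scale (0 no effect, 100 complete control).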

[7] = tested on: galium; experiment: Test C pre-/postemergence herbicide test; assay type: in vivo, Galium aparine
Outline: as §2

[8] = Postemergence, 125 g ai/ha, 0 to 100 scale, 0 no effect, 100 complete control
[9] = Postemergence, 500 g ai/ha, 0 to 100 scale (0 no effect, 100 complete control)
[10] = Preemergence, 125 g ai/ha, visual rating on 0 to 100 scale (0 no effect, 100 complete control)
[11] = Postemergence, 31 g ai/ha, scale 0 (no effect) to 100 (complete control)
[12] = Postemergence, 62 g ai/ha, scale 0 to 100 (0 no effect, 100 complete control)
[13] = Postemergence, 125 g ai/ha, scale 0 to 100 (0 no effect, 100 complete control)
[14] = Postemergence, 250 g ai/ha, scale 0 to 100 (0 no effect, 100 complete control)
[15] = Preemergence, 31 g ai/ha, scale 0 to 100, 0 is no effect and 100 is complete control
[16] = Preemergence, 62 g ai/ha, scale 0 to 100
[17] = Preemergence, 125 g ai/ha, scale 0 to 100 (0 no effect, 100 complete control)
[18] = 125 g ai/ha, 0 to 100 scale, 0 no effect, 100 complete control
[19] = 500 g ai/ha, 0 to 100 scale (0 no effect, 100 complete control)
[20] = 125 g ai/ha, visual rating, 0 to 100 scale, 0 no effect, 100 complete control, approximately 10 days, preemergence
[21] = Postemergence, 125 g ai/ha, 0 to 100 scale, 0 is no effect, 100 is complete control
[22] = preemergence, 500 g ai/ha, 0 to 100 scale, 0 is no effect and 100 is complete control
[23] = Postemergence, 31 g ai/ha, scale 0 to 100 (0 no effect, 100 complete control)
[24] = Postemergence, 62 g ai/ha, scale 0 (no effect) to 100 (complete control)
[25] = Preemergence, 62 g ai/ha, scale 0 to 100 (0 no effect, 100 complete control)
[26] = 125 g ai/ha, 0 to 100 scale, 0 is no effect, 100 is complete control
[27] = Postemergence, 125 g ai/ha, visual rating on 0 to 100 scale (0 no effect, 100 complete control), approx. 10 days
[28] = Preemergence, 125 g ai/ha, 0 to 100 scale where 0 is no effect and 100 is complete control
[29] = Preemergence, 500 g ai/ha, visual rating on 0 to 100 scale (0 no effect, 100 complete control)
[30] = Preemergence, 125 g ai/ha, scale 0 to 100
[31] = 125 g ai/ha, visual rating on 0 to 100 scale (0 no effect, 100 complete control), approx. 10 days

| SMILES | Plant response rating, Barnyardgrass [1, 9] | Plant response rating, Lambsquarters [2, 13] | Plant response rating, Lambsquarters [2, 14] | Lambsquarters plant response rating [2, 15] | Plant response rating, Lambsquarters [2, 17] | Plant response rating (scale of 0 to 100), Lambsquarters ([2]; Preemergence, 250 g ai/ha) | Plant response rating, Corn [4, 19] | Plant response rating, Blackgrass [6, 19] | Plant response rating, Galium [7, 13] | Plant response rating, Galium [7, 14] | Galium plant response rating [7, 15] | Plant response rating, Galium [7, 17] | Plant response rating (scale of 0 to 100), Galium ([7]; Preemergence, 250 g ai/ha) | Plant response rating, Barnyardgrass [1, 20] | Plant response rating, Barnyardgrass [1, 21] | Barnyardgrass plant response rating (0 to 100 scale, 0 is no effect, 100 is complete control) ([1]; Postemergence, 500 g ai/ha) | Plant response rating, Barnyardgrass [1, 22] | Lambsquarters plant response rating [2, 25] | Plant response rating, Barnyardgrass ([5]; 500 g ai/ha) | Galium plant response rating [7, 25] | other results |
| --- | --- | --- | --- | --- | --- | --- | --- | --- | --- | --- | --- | --- | --- | --- | --- | --- | --- | --- | --- | --- | --- |
| Cc1ccccc1NC(=O)C1C(=O)NCC1c1cccc(C(F)(F)F)c1 (racemic) [Compound 109] | 90 | 0 | 5 | 0 | 5 | 0 | 80 | 80 | 30 | 30 | 60 | 50 | 100 | – | – | – | – | – | – | – | Plant response rating, Barnyardgrass [1, 8]: 90; Barnyardgrass plant response rating [1, 10]: 80; Plant response rating, Barnyardgrass ([1]; preemergence, 500 g ai/ha, 0 to 100 scale (0 no effect, 100 complete control)): 90; Plant response rating, Lambsquarters [2, 11]: 0; Plant response rating, Lambsquarters [2, 12]: 0; Plant response rating, Lambsquarters [2, 16]: 0; Plant response rating, Kochia [3, 8]: 0; Plant response rating, Kochia [3, 9]: 0; Kochia plant response rating [3, 10]: 0; Plant response rating, Kochia ([3]; preemergence, 500 g ai/ha, 0 to 100 scale): 0; Plant response rating, Corn [4, 18]: 50; Plant response rating, Barnyardgrass ([5]; 1000 g ai/ha): 0; Plant response rating, Blackgrass [6, 18]: 50; Plant response rating, Galium [7, 11]: 0; Plant response rating, Galium [7, 12]: 0; Plant response rating, Galium [7, 16]: 100 |
| O=C1NCC(c2ccc(C(F)(F)F)cc2)C1C(=O)Nc1cccc(F)c1F (racemic) [Compound 202] | – | 80 | 85 | 80 | 90 | 100 | – | – | 80 | 80 | 85 | 90 | 90 | 90 | 80 | 90 | 90 | 90 | 65 | 90 | Plant response rating, Lambsquarters [2, 23]: 70; Plant response rating, Lambsquarters [2, 24]: 80; Plant response rating, Kochia [3, 20]: 70; Plant response rating, Kochia [3, 21]: 80; Kochia plant response rating (0 to 100 scale, 0 is no effect, 100 is complete control) ([3]; Postemergence, 500 g ai/ha): 90; Plant response rating, Kochia [3, 22]: 80; Plant response rating, Corn [4, 26]: 80; Corn plant response rating (0 to 100 scale, 0 is no effect, 100 is complete control) ([4]; 500 g ai/ha): 90; Plant response rating, Blackgrass [6, 26]: 50; Blackgrass plant response rating (0 to 100 scale, 0 is no effect, 100 is complete control) ([6]; 500 g ai/ha): 50; Plant response rating, Galium [7, 23]: 80; Plant response rating, Galium [7, 24]: 80 |
| O=C1NCC(c2cccc(OC(F)F)c2)C1C(=O)Nc1cccc(F)c1F (stereo not shown) [Compound 224] | – | 70 | 60 | 55 | 95 | 95 | – | – | 60 | 85 | 0 | 85 | 85 | 90 | 80 | 90 | 90 | 65 | 70 | 40 | Plant response rating, Lambsquarters [2, 23]: 5; Plant response rating, Lambsquarters [2, 24]: 50; Plant response rating, Kochia [3, 20]: 80; Plant response rating, Kochia [3, 21]: 80; Kochia plant response rating (0 to 100 scale, 0 is no effect, 100 is complete control) ([3]; Postemergence, 500 g ai/ha): 90; Plant response rating, Kochia [3, 22]: 90; Plant response rating, Corn [4, 26]: 60; Corn plant response rating (0 to 100 scale, 0 is no effect, 100 is complete control) ([4]; 500 g ai/ha): 80; Plant response rating, Blackgrass [6, 26]: 60; Blackgrass plant response rating (0 to 100 scale, 0 is no effect, 100 is complete control) ([6]; 500 g ai/ha): 70; Plant response rating, Galium [7, 23]: 5; Plant response rating, Galium [7, 24]: 45 |
| O=C1NCC(c2ccc(C(F)(F)F)cc2)C1C(=O)Nc1ccccc1F (stereo not shown) [Compound 231] | – | – | – | 40 | 85 | 100 | – | – | – | – | 0 | 90 | 90 | 90 | 80 | 90 | 90 | 85 | 0 | 85 | Plant response rating, Kochia [3, 20]: 70; Plant response rating, Kochia [3, 21]: 70; Kochia plant response rating (0 to 100 scale, 0 is no effect, 100 is complete control) ([3]; Postemergence, 500 g ai/ha): 90; Plant response rating, Kochia [3, 22]: 90; Plant response rating, Corn [4, 26]: 30; Corn plant response rating (0 to 100 scale, 0 is no effect, 100 is complete control) ([4]; 500 g ai/ha): 40; Plant response rating, Blackgrass [6, 26]: 40; Blackgrass plant response rating (0 to 100 scale, 0 is no effect, 100 is complete control) ([6]; 500 g ai/ha): 60 |
| O=C1NCC(c2cccc(Br)c2)C1C(=O)Nc1ccc(F)c(F)c1F (stereo not shown) [Compound 310] | 90 | 65 | 70 | 0 | – | 80 | 50 | 50 | 50 | 65 | 0 | – | 70 | – | – | – | – | 5 | 60 | 0 | Plant response rating, Barnyardgrass [1, 27]: 90; Plant response rating, Barnyardgrass [1, 28]: 90; Barnyardgrass plant response rating [1, 29]: 90; Plant response rating, Lambsquarters [2, 23]: 25; Plant response rating, Lambsquarters [2, 24]: 65; Plant response rating, Lambsquarters [2, 30]: 55; Plant response rating, Kochia [3, 27]: 30; Plant response rating, Kochia [3, 9]: 30; Plant response rating, Kochia [3, 28]: 30; Kochia plant response rating [3, 29]: 70; Plant response rating, Corn [4, 31]: 20; Plant response rating, Blackgrass [6, 31]: 30; Plant response rating, Galium [7, 23]: 35; Plant response rating, Galium [7, 24]: 50; Plant response rating, Galium [7, 30]: 0 |
| O=C1NCC(c2cccc(C(F)(F)F)c2)C1C(=O)Nc1ccc(F)c(F)c1F (stereo not shown) [Compound 345] | 90 | – | – | 100 | – | 85 | 90 | 60 | – | – | 20 | – | 85 | – | – | – | – | 75 | – | 90 | Plant response rating, Barnyardgrass [1, 27]: 70; Plant response rating, Barnyardgrass [1, 28]: 80; Barnyardgrass plant response rating [1, 29]: 90; Plant response rating, Lambsquarters [2, 30]: 85; Plant response rating, Kochia [3, 27]: 50; Plant response rating, Kochia [3, 28]: 10; Kochia plant response rating [3, 29]: 80; Plant response rating, Corn [4, 31]: 80; Plant response rating, Barnyardgrass ([5]; 1000 g ai/ha): 0; Plant response rating, Blackgrass [6, 31]: 50; Plant response rating, Galium [7, 30]: 90 |
